Measured values published in US20170189372A1, “USE OF SUBSTITUTED CHROMAN COMPOUNDS” (INSTYTUT BIOLOGII MEDYCZNEJ, priority 2014, published 2017).

Legend:
[1] = test system: reporter cell line for interleukin-10 (EL-4 cells); experiment: FCC test, expanded version, IL-10 reporter cell line; assay type: cell-based, mouse; conditions: IL-10 reporter line; PMA and ionomycin; 1.56 to 50 μg/ml, 50 μg/ml assumed to be 1
Protocol: (§1) Development of reporter cell lines was described previously (Ulleras, E., D. Trzaska, et al. (2005); “Development of the “Cell Chip”: a new in vitro alternative technique for immunotoxicity testing”, Toxicology 206(2): 245-56). Briefly, EL-4 cells were stably transfected with transgene consisting of promoter regions from mouse β-actin, interleukin-2 (IL-2), interleukin-4 (IL-4), interferon-γ (IFN-γ), and interleukin-10 (IL-10) and ORF for EGFP. Reporter cells were cultured at density 5×10^5-1×10^6 cells/ml in a humidified atmosphere with 5% CO2 at 37° C. in RPMI 1640 with Glutamax supplemented with 20% FCS and 0.5 μg/ml G418.
(§2) Compounds after primary screening were considered to be hits when FCC parameter calculated after primary screening was ≦−5000. After secondary screening area under the curve (A) of FCC parameter versus relative concentration was calculated (maximum concentration used, i.e. 50 μg/ml, was assumed to be 1). […]
(§3) Flavonoids selected after preliminary screening were undergoing FCC testing using 5 reporter cell lines: for β-actin, interleukin-2 (IL-2), interleukin-4 (IL-4), interferon-γ (IFN-γ) and interleukin-10 (IL-10). The tested concentrations were in the range from 1.56 to 50 μg/ml.
(§4) Using flow cytometry mean fluorescence intensity (columns, left Y axis) and cell viability (dots, the right Y-axis) was determined for all the experimental points and normalized relative to the control—cells incubated with medium with PMA and ionomycin. The data is the mean of the three experiments ±SEM. The statistical significance of differences between means were determined: * p<0.05, ** p<0.01, *** p<0.001 versus control. Values above the graph represent the area under the curve showing the relationship of the FCC parameter and the relative compound concentration.

[2] = test system: IL-2 production by Jurkat cells; experiment: ELISA for IL-2 in Jurkat cells; assay type: cell-based; conditions: for inhibition at 10 µg/mL / inhibition at 50 µg/mL: Homo sapiens, Jurkat cells, PMA and ionomycin, 24 hours; for inhibition at 10 µg/mL: 10 μg/ml; for inhibition at 50 µg/mL: 50 μg/ml
Protocol: Jurkat cells were seeded in 48-well plates at a concentration of 1 million/ml. Cells activated with PMA (50 ng/ml) and ionomycin (1 uM) or resting were incubated with 50 selected flavonoids in a concentration of 10 μg/ml and 50 μg/ml for 24 hours in a humidified atmosphere with 5% CO 2 at 37° C. As a control, the respective cells in the medium or in a medium with PMA and ionomycin were employed. After incubation, cells were centrifuged (8 minutes, 1300 rpm), and the cell-free supernatants were stored at −20° C. until measurements. IL-2 was assessed using a commercially available ELISA kits according to the manufacturer's instructions. Each experiment was repeated 3 times.
FCC assay and ELISA assay were repeated three times. Relative data were presented as the means±SEM. […] Statistical significance of differences observed in both assays was tested with ANOVA followed by post hoc Dunnett test using GraphPad software (La Jolla, Calif., USA). In statistical analysis non-relative data were used

[3] = test system: reporter cell line for β-actin (EL-4 cells); experiment: FCC test, expanded version, β-actin reporter cell line; assay type: cell-based, mouse; conditions: PMA and ionomycin, 1.56 to 50 μg/ml, 50 μg/ml assumed to be 1
Protocol: as §1, §2, §3, §4

[4] = test system: reporter cell line for interferon-γ (EL-4 cells); experiment: FCC test, expanded version, IFN-γ reporter cell line; assay type: cell-based, mouse; conditions: PMA and ionomycin, 1.56 to 50 μg/ml, 50 μg/ml assumed to be 1
Protocol: as §1, §2, §3, §4

[5] = test system: reporter cell line for interleukin-2 (EL-4 cells); experiment: FCC test, expanded version, IL-2 reporter cell line; assay type: cell-based, mouse; conditions: for The area under the curve showing the relationship between the FCC parameter and compound concentration, IL-2: IL-2 reporter line, PMA and ionomycin, 1.56 to 50 μg/ml, 50 μg/ml assumed to be 1
Protocol: as §1, §2, §3, §4

[6] = test system: reporter cell line for IL-2 (EL-4 cells); experiment: FCC primary screening with IL-2 reporter cells; assay type: cell-based, mouse; conditions: relative viability×(relative fluorescence−100); PMA and ionomycin activated, compound 0.4 μg/ml, 18 h
Protocol: as §1
(§5) When applicable, cells and reagents handling was performed by JANUS Automated Workstation (PerkinElmer, Waltham, Mass., USA). Cells were seeded at a density of 5×10^4 per well in 96-well plates. In the primary screening reporter cells for IL-2 activated with PMA (50 ng/ml) and ionomycin (1 μM) were seeded in a 96-well plate and incubated with compounds from the chemical library in a total volume of 100 μL at 37° C. in a humidified atmosphere with 5% CO2 for 18 h. Concentration of compounds was 0.4 μg/ml. The final DMSO concentration was 0.2%, DMSO is not cytotoxic towards EL-4 reporter cells at this concentration. Control samples consisted of cells in medium with 0.2% DMSO with PMA (50 ng/ml) and ionomycin (1 μM). Following incubation cells were analyzed by flow cytometry. Viability was assessed in parallel to the level of EGFP-mediated fluorescence.
Selection of compounds was based on FCC parameters calculated using the following formula:
FCC parameter=relative viability×(relative fluorescence−100)
Compounds after primary screening were considered to be hits when FCC parameter calculated after primary screening was ≦−5000. After secondary screening area under the curve (A) of FCC parameter versus relative concentration was calculated (maximum concentration used, i.e. 50 μg/ml, was assumed to be 1).

[7] = test system: reporter cell line for interleukin-4 (EL-4 cells); experiment: FCC test, expanded version, IL-4 reporter cell line; assay type: cell-based, mouse; conditions: for The area under the curve showing the relationship between the FCC parameter and compound concentration, IL-4: IL-4 reporter line, PMA and ionomycin, 1.56 to 50 μg/ml, 50 μg/ml assumed to be 1
Protocol: as §1, §2, §3, §4

reporter cell line EL-4 = experiment: Viability of reporter cells in FCC assay; assay type: cell-based, mouse; conditions: at concentrations up to 25 mg/ml
Protocol: as §5
as §4, with “Values above the graph represent the area under the curve showing the relationship of the FCC parameter and the relative compound concentration.” left out

Row | Compound | The area under the curve showing the relationship between the FCC parameter and compound concentration, IL-10 [1] | inhibition at 10 µg/mL [2] | inhibition at 50 µg/mL [2] | The area under the curve showing the relationship between the FCC parameter and compound concentration, AKT [3] | The area under the curve showing the relationship between the FCC parameter and compound concentration, IFN [4] | The area under the curve showing the relationship between the FCC parameter and compound concentration, IL-2 [5] | FCC parameter (IL-2 screening) [6] | The area under the curve showing the relationship between the FCC parameter and compound concentration, IL-4 [7] | inhibition of PMA and ionomycin induced IL-2 production by ELISA (in words) ([2]; concentration not given) | cytotoxicity in the reporter cell line EL-4 (reporter cell line EL-4) | inhibition of PMA and ionomycin induced EGFP-mediated fluorescence (in words) ([5]; FCC test, reporter cell lines not specified, judged by area under the curve) | decrease in EGFP-mediated fluorescence ([5]; reporter cell line for IL-2, 25 μg/ml) | decrease in EGFP-mediated fluorescence ([7]; reporter cell line for IL 4, 25 μg/ml)
1 | COc1cccc(C2CC(=O)c3ccccc3O2)c1OC (stereo not shown) [Compound 10, 2-(2,3-dimethoxyphenyl)chroman-4-one] | −1336 | 32% | 97% | 118 | −3142 | −2244 | −6685 | −946 | – | – | – | – | –
2 | COc1ccc2c(c1)OC(c1ccccc1)CC2=O (stereo not shown) [Compound 11, 7-methoxy-2-phenylchroman-4-one] | −777 | 35% | 97% | −754 | −3975 | −3670 | −6917 | −1499 | – | – | – | – | –
3 | CC(=O)Oc1cc2c(cc1Cl)C(C)(C)CC(C)(c1cc(Cl)c(OC(C)=O)cc1OC(C)=O)O2 (stereo not shown) [Compound 12, 2-(2,4-diacetyloxy-5-chlorophenyl)-6-chloro-2,4,4-trimethylchroman-7-yl acetate] | – | 100% | 83% | −2936 | – | – | −7615 | – | strongly inhibited | not cytotoxic | highest inhibition | more than 90% | more than 90%
